Data as given in patent US6723897B2, “Methods for controlling gibberellin levels” (Monsanto Technology, LLC, priority 1998, dated 2004).

How the values were obtained:
[1] = tested on: wild-type soybeans (line A3237); assay: Summary of first two greenhouse experiments, elongation of wild-type soybeans
Outline: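 Seeds of wild-type A3237 or GA-deficient dwarf line 719 imbibed 6 h in ethanol-water compound solutions (0.25, 0.025, 0.0025 mg/ml; GA9 at 0.125, 0.0125, 0.00125 mg/ml; Experiment I 0.25 mg/ml only), 20 seeds per treatment, then grown in greenhouse. Dwarf/intermediate/tall counts, plant height and rescue uniformity recorded after three weeks.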

[2] = Distribution of 14C label in soybean plant parts after seed treatment
Experimental: ^14C-radiolabelled compounds are obtained from Lew Mander (Australian National University). ^14C-GA3 is dissolved in water:ethanol, 80:20, v/v; ^14C-GA9 and ^14C-GA12 are dissolved in 100% ethanol. Seeds of Asgrow 3237 soybeans are treated separately with solutions of each of the ^14C-radiolabelled compounds (1.7-6.8 μg; 10-40 ppm; 111,000-2,000,000 dpm/seed) by placing one to four μl of the dosing solution directly on the seed coat (^14C-GA3, GA9, and GA12), or on the hilum portion of the seed (^14C-GA3). After evaporation of the carrier solvent (approx. one hour), the treated seed is planted in containers containing approximately 30 gm of Metromix-350, and transferred to a growth chamber. Plants are grown under a 12 hour light/12 hour dark regime at 92° F. (33° C.)and 75% humidity. The pattern of uptake and translocation of ^14C-radioactivity in treated seed is monitored up to 12 days past initial treatment. For most experiments, three replicate plants are harvested at one hour after treatment, one day after treatment (DAT), two DAT, three DAT, six or seven DAT, and 12 DAT. At the time of each harvest, plants are divided into leaves, epicotyl, cotyledon, hypocotyl, and roots. The level of ^14C-radioactivity in different plant parts is determined by extraction of plant tissues with aqueous methanol and scintillation counting. The extent of metabolism of the ^14C-labelled GA compounds in planta is determined by HPLC analysis of plant extracts. The details are as follows.
The general extraction procedure consisted of blending the plant parts in a high speed polytron tissue homogenizer for 1-5 minutes with 10-20 ml of ice-cold methanol:water, 80:20, v/v, followed by vacuum filtration through a Whatman glass fiber filter. The filter cake is re-extracted as necessary using the procedure described above until an insignificant amount of radioactivity is removed. Prior to combining the extracts from each sample, aliquots are weighed and analyzed by liquid scintillation counting (LSC) to determine the amount of extracted radioactivity in each extract. Aliquots of the air-dried filter cakes are combusted and analyzed by LSC in order to determine the amount of non-extracted radioactivity. The extracts are combined and, when necessary, concentrated by rotary evaporation at a bath temperature of less than 35° C. to a small volume for analysis by HPLC to determine the extent of metabolism of the ^14C-labelled GA compounds in planta.

[3] = tested on: transgenic line 719 soybean; assay: Field trial of seed coatings under soil compaction / different soils, GA-deficient soybean; format: in vivo, Glycine max; settings: for Count (emergence) / Dwarfs (number of dwarfs not rescued) / Dwarfs (number not rescued): Line 719; for rank of potential for rescuing GA-deficient dwarf soybeans without decreasing emergence: based on the last two field trials
[4] = 0.25 mg/ml solution (ethanol-water)
[5] = Heavy soil - Loose, target rate 1.0 μg/seed, Table 23
[6] = Heavy soil - Loose, target rate 10.0 μg/seed, Table 23
[7] = Heavy soil - Loose, target rate 40.0 μg/seed, Table 23
[8] = Heavy soil - compacted, target rate 1.0 μg/seed, Table 23
[9] = Heavy soil - compacted, target rate 10.0 μg/seed, Table 23
[10] = Heavy soil - compacted, target rate 40.0 μg/seed, Table 23
[11] = Heavy soil - loose, target rate 40.0 μg/seed, Table 22
[12] = Light soil - Compacted, target rate 40.0 μg/seed, Table 22
[13] = Light soil - Loose, target rate 1.0 μg/seed, Table 24
[14] = Light soil - Loose, target rate 10.0 μg/seed, Table 24
[15] = Light soil - Loose, target rate 40.0 μg/seed, Table 24
[16] = Light soil - compacted, target rate 1.0 μg/seed, Table 24
[17] = Light soil - compacted, target rate 10.0 μg/seed, Table 24
[18] = Light soil - compacted, target rate 40.0 μg/seed, Table 24
[19] = Heavy soil - loose, target rate 2.0 μg/seed, Table 22
[20] = Heavy soil - loose, target rate 8.0 μg/seed, Table 22
[21] = Light soil - Compacted, target rate 2.0 μg/seed, Table 22
[22] = Light soil - Compacted, target rate 8.0 μg/seed, Table 22
[23] = Light soil - Loose, target rate 2.0 μg/seed, Table 24
[24] = Light soil - Loose, target rate 8.0 μg/seed, Table 24
[25] = Light soil - Loose, target rate 16.0 μg/seed, Table 24
[26] = Light soil - compacted, target rate 2.0 μg/seed, Table 24
[27] = Light soil - compacted, target rate 8.0 μg/seed, Table 24
[28] = Light soil - compacted, target rate 16.0 μg/seed, Table 24

In the case of C=C1C[C@]23C[C@H]1CC[C@H]2[C@]1(C)CCC[C@@](C)(C(=O)O)[C@H]1[C@@H]3C(=O)O [GA12], the “Elongation of wild-type soybeans” value ([1]; 0.0025 mg/ml solution (ethanol-water)) was 0, the “Elongation of wild-type soybeans” value ([1]; 0.025 mg/ml solution (ethanol-water)) was “−” and the “Elongation of wild-type soybeans” value [1, 4] was “−”. For the same compound, the “^14C Label Distribution (% of dose), Cotyledon” value ([2]; 3 DAP) was 55 % of dose, the “^14C Label Distribution (% of dose), Hypocotyl” value ([2]; 3 DAP) was 1.7 % of dose and the “^14C Label Distribution (% of dose), Root” value ([2]; 3 DAP) was 3.5 % of dose. For the same compound, the “^14C Label Distribution (% of dose), Cotyledon” value ([2]; 12 DAP) was 45 % of dose, the “^14C Label Distribution (% of dose), Epicotyl” value ([2]; 12 DAP) was 0.2 % of dose and the “^14C Label Distribution (% of dose), Hypocotyl” value ([2]; 12 DAP) was 0.9 % of dose. The “^14C Label Distribution (% of dose), Leaves” value ([2]; 12 DAP) was 0.7 % of dose, the “^14C Label Distribution (% of dose), Root” value ([2]; 12 DAP) was 3.0 % of dose and the “Count (emergence)” value [3, 5] was 36.0 ab. The “Dwarfs (number of dwarfs not rescued)” value [3, 5] was 10.0 a, the “Count (emergence)” value [3, 6] was 35.3 abc and the “Dwarfs (number of dwarfs not rescued)” value [3, 6] was 7.0 b. For the same compound, the “Count (emergence)” value [3, 7] was 35.3 abc, the “Dwarfs (number of dwarfs not rescued)” value [3, 7] was 3.3 c and the “Count (emergence)” value [3, 8] was 18.7 ab. The “Dwarfs (number of dwarfs not rescued)” value [3, 8] was 4.0 a, the “Count (emergence)” value [3, 9] was 13.0 b-e and the “Dwarfs (number of dwarfs not rescued)” value [3, 9] was 2.0 b. For the same compound, the “Count (emergence)” value [3, 10] was 22.7 a, the “Dwarfs (number of dwarfs not rescued)” value [3, 10] was 1.3 bc and the “Count (emergence)” value [3, 11] was 35 abc. For the same compound, the “Dwarfs (number of dwarfs not rescued)” value [3, 11] was 3.3 c, the “Count (emergence)” value [3, 12] was 42 a and the “Dwarfs (number of dwarfs not rescued)” value [3, 12] was 3.7 bc. The “Count (emergence)” value [3, 13] was 46.3 a, the “Dwarfs (number not rescued)” value [3, 13] was 17.3 b and the “Count (emergence)” value [3, 14] was 48.3 a. The “Dwarfs (number not rescued)” value [3, 14] was 11.3 c, the “Count (emergence)” value [3, 15] was 46.0 a and the Dwarfs (number not rescued) [3, 15] was 7.7. The “Count (emergence)” value [3, 16] was 40.3 a, the “Dwarfs (number not rescued)” value [3, 16] was 8.3 a and the “Count (emergence)” value [3, 17] was 40.0 ab. For the same compound, the “Dwarfs (number not rescued)” value [3, 17] was 4.3 b, the “Count (emergence)” value [3, 18] was 42.0 a and the “Dwarfs (number not rescued)” value [3, 18] was 3.7 bc. The “rank of potential for rescuing GA-deficient dwarf soybeans without decreasing emergence” value [3] was “GA9>GA5>GA3-3-acetate>GA3>GA12”.

With C=C1C[C@]23C[C@H]1CC[C@H]2[C@@]12CCC[C@@](C)(C(=O)O1)[C@H]2[C@@H]3C(=O)O [GA9] the “Elongation of wild-type soybeans” value ([1]; 0.00125 mg/ml solution (ethanol-water)) was “−”, the “Elongation of wild-type soybeans” value ([1]; 0.0125 mg/ml solution (ethanol-water)) was 0 and the “Elongation of wild-type soybeans” value ([1]; 0.125 mg/ml solution (ethanol-water)) was 0. For the same compound, the “Elongation of wild-type soybeans” value [1, 4] was “+”, the “^14C Label Distribution (% of dose), Cotyledon” value ([2]; 3 DAP) was 60 % of dose and the “^14C Label Distribution (% of dose), Hypocotyl” value ([2]; 3 DAP) was 6.8 % of dose. The “^14C Label Distribution (% of dose), Root” value ([2]; 3 DAP) was 1.3 % of dose, the “^14C Label Distribution (% of dose), Cotyledon” value ([2]; 12 DAP) was 54 % of dose and the “^14C Label Distribution (% of dose), Epicotyl” value ([2]; 12 DAP) was 0.1 % of dose. For the same compound, the “^14C Label Distribution (% of dose), Hypocotyl” value ([2]; 12 DAP) was 1.0 % of dose, the “^14C Label Distribution (% of dose), Leaves” value ([2]; 12 DAP) was 0.3 % of dose and the “^14C Label Distribution (% of dose), Root” value ([2]; 12 DAP) was 1.0 % of dose. The “% Emergence, Heavy Soil-Loose” value ([3]; 3.1 μg/seed) was 103%, the “% Emergence, Light Soil-Compact” value ([3]; 3.1 μg/seed) was 103% and the “% Rescue, Heavy Soil-Loose” value ([3]; 3.1 μg/seed) was 80%. For the same compound, the “% Rescue, Light Soil-Compact” value ([3]; 3.1 μg/seed) was 91%, the “% Emergence, Heavy Soil-Loose” value ([3]; 4.9 μg/seed) was 91% and the “% Emergence, Light Soil-Compact” value ([3]; 4.9 μg/seed) was 73%. For the same compound, the “% Rescue, Heavy Soil-Loose” value ([3]; 4.9 μg/seed) was 93%, the “% Rescue, Light Soil-Compact” value ([3]; 4.9 μg/seed) was 100% and the “Count (emergence)” value [3, 19] was 42 a. For the same compound, the “Dwarfs (number of dwarfs not rescued)” value [3, 19] was 2.0 cde, the “Count (emergence)” value [3, 20] was 35 abc and the “Dwarfs (number of dwarfs not rescued)” value [3, 20] was 0.7 cde. The “Count (emergence)” value [3, 21] was 38 abc, the “Dwarfs (number of dwarfs not rescued)” value [3, 21] was 0.7 cd and the “Count (emergence)” value [3, 22] was 27 b-f. For the same compound, the “Dwarfs (number of dwarfs not rescued)” value [3, 22] was 0 days, the “Count (emergence)” value [3, 23] was 48.0 a and the “Dwarfs (number not rescued)” value [3, 23] was 2.3 e. For the same compound, the “Count (emergence)” value [3, 24] was 49.0 a, the “Dwarfs (number not rescued)” value [3, 24] was 0 e and the “Count (emergence)” value [3, 25] was 45.0 ab. For the same compound, the “Dwarfs (number not rescued)” value [3, 25] was 0 e, the “Count (emergence)” value [3, 26] was 38.3 abc and the “Dwarfs (number not rescued)” value [3, 26] was 0.7 cd. The “Count (emergence)” value [3, 27] was 27.3 b-f, the Dwarfs (number not rescued) [3, 27] was 0 and the “Count (emergence)” value [3, 28] was 29.7 a-f. For the same compound, the Dwarfs (number not rescued) [3, 28] was 0, the “rank of potential for rescuing GA-deficient dwarf soybeans without decreasing emergence” value [3] was “GA9>GA5>GA3-3-acetate>GA3>GA12” and the “best to least selectivity order” value ([3]; emergence under soil compaction, margin of selectivity, rescue without overelongation, Table 22) was “GA9>GA5>GA3-3-acetate>GA3”.
